We go through 9 compounds from patent publication US5760054A, “Alpha IC adrenergic receptor antagonists” (priority 1996, dated 1998).

The IC50 is the concentration that inhibits the measured activity by half.

Test [1] has as its target human/rat alpha1B adrenergic receptor. The test is described as follows: Selective binding assay, competition with [125I]-HEAT on COS-7 membranes, α1B. The arrangement: species or system human/rat hybrid. The protocol: The partial human alpha1B adrenergic receptor cDNA was joined to the 3' end of the rat alpha1B adrenergic receptor cDNA at their common BssHII restriction endonuclease site. ID:25:
The complete coding region for the human/rat alpha1B adrenergic receptor was subcloned into the eukaryotic expression vector pcDNAI-neo (Invitrogen). The resulting plasmid was transfected into COS-7 cells by electroporation. […] Binding reactions (total volume=200 ul) contained 50 mM Tris-HCl pH. […] Reactions are incubated at room temperature for one hour with shaking. Reactions were filtered onto Whatman GF/C glass fiber filters with a Brandel cell harvester. Filters were washed three times with ice cold buffer and bound radioactivity was determined.
(§1) These competition binding reactions (total volume=200 ul) contain 50 mM Tris-HCl pH. […] Reactions are incubated at room temperature for one hour with shaking. Reactions were filtered onto Whatman GF/C glass fiber filters with a Brandel cell harvester. Filters were washed three times with ice cold buffer and bound radioactivity was determined. Binding data were analyzed and IC50s determined by an iterative curve fitting program.

For test [2], the target named is human alpha1A adrenergic receptor. The test is described as follows: Selective binding assay, competition with [125I]-HEAT on COS-7 membranes, α1A. The following applies: Table I, 100 pM [125I]-HEAT. The protocol: The resulting plasmid was transfected into COS-7 cells by electroporation.
Binding reactions (total volume=200 ul) contained 50 mM Tris-HCl pH. […] Reactions are incubated at room temperature for one hour with shaking. Reactions were filtered onto Whatman GF/C glass fiber filters with a Brandel cell harvester. Filters were washed three times with ice cold buffer and bound radioactivity was determined.
as §1

Test [3] addresses T1, human alpha1C adrenergic receptor (Homo sapiens, UniProt P35348, C347R).
T1 construct: expressed in transfected cells; host or cells: COS-7 cells (pcDNAI-neo, electroporation), membranes
T1 sequence (P35348 1-466 C347R): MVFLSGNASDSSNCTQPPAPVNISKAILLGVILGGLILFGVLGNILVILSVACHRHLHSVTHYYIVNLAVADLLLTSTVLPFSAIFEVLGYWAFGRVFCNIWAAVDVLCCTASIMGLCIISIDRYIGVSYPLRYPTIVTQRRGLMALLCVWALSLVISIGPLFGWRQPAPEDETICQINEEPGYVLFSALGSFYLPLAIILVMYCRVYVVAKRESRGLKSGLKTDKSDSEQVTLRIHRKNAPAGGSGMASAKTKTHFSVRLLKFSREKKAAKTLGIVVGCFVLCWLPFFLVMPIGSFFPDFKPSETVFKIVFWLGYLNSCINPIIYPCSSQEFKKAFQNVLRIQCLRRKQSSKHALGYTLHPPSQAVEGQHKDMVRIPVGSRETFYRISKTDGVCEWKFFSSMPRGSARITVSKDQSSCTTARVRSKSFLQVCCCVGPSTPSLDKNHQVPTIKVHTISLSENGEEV
Nature of the test: Selective binding assay, competition with [125I]-HEAT on COS-7 membranes, α1C. As to conditions: Table I, 100 pM [125I]-HEAT. The protocol:
The resulting plasmid was transfected into COS-7 cells by electroporation. […] Binding reactions (total volume=200 ul) contained 50 mM Tris-HCl pH. […] Reactions were incubated at room temperature for one hour with shaking. Reactions were filtered onto Whatman GF/C glass fiber filters with a Brandel cell harvester. Filters were washed three times with ice cold buffer and bound radioactivity was determined.
as §1, §1

The target in test [4] is T2, human alpha-1c adrenergic receptor, allele 1 (LRR) (Homo sapiens, UniProt P35348, C347R).
T2 sequence (P35348 1-466 C347R): T1 sequence (P35348 1-466 C347R)
Nature of the test: biochemical. From the text: (§2) To investigate the pharmacological profiles of the two allelic forms of the human alpha-1c adrenergic receptor we ligated the genomic exon 2 fragment of allele 2 to a cDNA clone of allele 1 at a common PvuII restriction site. The two allelic forms were transiently expressed in COS-7 cells using pcDNAI/NEO (Invitrogen) expression vector.

In test [5] the target is T3, human alpha-1c adrenergic receptor, allele 2 (LCR) (Homo sapiens, UniProt P35348).
T3 sequence (P35348 1-466): T1 sequence (P35348 1-466 C347R) with R347C
Nature of the test: biochemical.
Description: as §2

Where [6] appears, read: Table I, 100 pM [125I]-HEAT, COS-7 membranes.

Substitutions are numbered along the chain they refer to. Like-named read-outs stand apart in the source and are kept apart here.

As for `COC(=O)C1=C(C)NC(C)=C(C(=O)OCCCN2CCC(c3ccccc3)(c3ccccc3)CC2)[C@H]1c1cccc([N+](=O)[O-])c1` [S(+) niguldipine], the IC50 in test [1] was found to be 670 nM.

Turning to `COc1cccc(OC)c1OCCNCC1COc2ccccc2O1` (centres unmarked) [WB4101], the IC50 in test [2] is 1 nM; in test [1] (setting [6]), 16 nM; in test [3], 1 nM; in test [4] it was 0.9 nM; in test [5] (read-out: IC50 LCR, Table II, allele 2 (Cys at amino acid 347), COS-7, 125I-HEAT) it was 1 nM.

In the case of `COc1cccc(OC)c1OCCNCC1CSc2ccccc2O1` (centres unmarked) [benoxathian], the IC50 worked out at 2.5 nM in test [2], 68 nM in test [1] (setting [6]) and 1.5 nM in test [3].

`COc1cc2nc(N3CCN(C(=O)C4COc5ccccc5O4)CC3)nc(N)c2cc1OC` (centres unmarked) [doxazosin] had an IC50 in test [1] (setting [6]) of 2 nM.

In the case of `COc1ccccc1N1CCN(CCCNc2c(C)c(=O)n(C)c(=O)n2C)CC1` [5-methyl urapidil], the IC50 is 42 nM in test [2]; 270 nM in test [1] (setting [6]); 3.5 nM in test [3]; 3.1 nM in test [4]; 4.3 nM in test [5].

Regarding `CC(COc1ccccc1)N(CCCl)Cc1ccccc1` (centres unmarked) [phenoxybenzamine], the IC50 in test [2] is 6.1 nM; in test [1] (setting [6]), 4.3 nM.

For `COc1cc2nc(N3CCN(C(=O)c4ccco4)CC3)nc(N)c2cc1OC` [prazosin], the IC50 in test [1] is 2.4 nM.

For the compound `COc1cc2nc(N3CCN(C(=O)C4CCCO4)CC3)nc(N)c2cc1OC` (centres unmarked) [terazosin], in test [1] (setting [6]), the IC50 is 5 nM.

Consider `Cc1ccc(N(CC2=NCCN2)c2cccc(O)c2)cc1` [phentolamine], for which the IC50 in test [1] (setting [6]) is 650 nM.
